Values belong to the molecule of their own block, whether it stands above or below them.
Key:
HDAC1 = HDAC1 (Homo sapiens (Human), UniProt Q13547); test: HDAC1 enzymatic assay; assay type: biochemical; details: read-out: Human HDAC1 IC50
Summary of the method: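 HDAC1 activity was measured in duplicate 50 μl reactions containing 0.5 ng HDAC1, 10 uM of HDAC substrate, and test compound in buffer (50 mM Tris-HCl, pH 7.4, 137 mM NaCl, 2.7 mM KCl, 0.05% Tween 20, 5 μg BSA) with 1% DMSO, incubated 17 hours at room temperature. HDAC Developer was then added for 20 minutes and fluorescence read at 360/460 nm.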

HDAC6 = HDAC6 (Homo sapiens (Human), UniProt Q9UBN7); test: HDAC6 enzymatic assay; assay type: biochemical; details: read-out: Human HDAC6 IC50
Sequence of HDAC6 (Q9UBN7 whole entry): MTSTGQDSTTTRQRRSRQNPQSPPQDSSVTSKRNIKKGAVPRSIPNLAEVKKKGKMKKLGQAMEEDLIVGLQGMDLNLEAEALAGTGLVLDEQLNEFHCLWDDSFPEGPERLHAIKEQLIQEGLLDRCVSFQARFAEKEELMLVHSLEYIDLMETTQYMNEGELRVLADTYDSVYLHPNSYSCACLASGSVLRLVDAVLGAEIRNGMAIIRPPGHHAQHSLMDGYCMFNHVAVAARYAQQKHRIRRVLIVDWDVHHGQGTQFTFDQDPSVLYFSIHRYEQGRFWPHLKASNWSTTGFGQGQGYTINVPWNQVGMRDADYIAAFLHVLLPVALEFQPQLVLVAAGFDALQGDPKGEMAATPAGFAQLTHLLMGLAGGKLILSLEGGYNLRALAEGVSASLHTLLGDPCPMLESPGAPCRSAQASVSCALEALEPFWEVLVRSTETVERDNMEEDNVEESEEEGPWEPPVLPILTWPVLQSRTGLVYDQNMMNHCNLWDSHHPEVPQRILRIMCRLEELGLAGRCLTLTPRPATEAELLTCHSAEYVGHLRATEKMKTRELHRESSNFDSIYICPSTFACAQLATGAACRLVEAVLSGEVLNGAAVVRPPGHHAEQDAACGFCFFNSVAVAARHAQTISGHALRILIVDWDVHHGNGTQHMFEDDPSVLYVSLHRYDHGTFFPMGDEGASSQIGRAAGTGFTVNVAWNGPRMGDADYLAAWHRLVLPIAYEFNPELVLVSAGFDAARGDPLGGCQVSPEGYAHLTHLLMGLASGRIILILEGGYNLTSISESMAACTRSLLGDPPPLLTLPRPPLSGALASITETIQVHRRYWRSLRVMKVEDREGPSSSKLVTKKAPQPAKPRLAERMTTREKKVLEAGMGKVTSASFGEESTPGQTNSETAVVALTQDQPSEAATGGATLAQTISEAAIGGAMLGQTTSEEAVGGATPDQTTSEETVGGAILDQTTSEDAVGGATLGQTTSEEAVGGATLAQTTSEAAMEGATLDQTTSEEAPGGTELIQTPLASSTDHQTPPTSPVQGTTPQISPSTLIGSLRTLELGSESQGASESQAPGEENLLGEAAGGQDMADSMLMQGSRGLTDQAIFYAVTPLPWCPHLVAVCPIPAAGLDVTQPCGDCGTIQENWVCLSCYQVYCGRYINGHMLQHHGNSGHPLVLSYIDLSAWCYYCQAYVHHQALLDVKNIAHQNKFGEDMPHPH
Summary of the method: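 Human HDAC6 activity was measured in duplicate 50 μl reactions holding 2 ng HDAC6, 10 uM of HDAC substrate and test compound in HDAC assay buffer (50 mM Tris-HCl, pH 7.4, 137 mM NaCl, 2.7 mM KCl, 0.05% Tween 20, 5 μg BSA) with 1% DMSO, for 17 hours at room temperature. HDAC Developer was added for 20 minutes before reading fluorescence at 360/460 nm.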

Sequence of HDAC1 (Q13547 whole entry): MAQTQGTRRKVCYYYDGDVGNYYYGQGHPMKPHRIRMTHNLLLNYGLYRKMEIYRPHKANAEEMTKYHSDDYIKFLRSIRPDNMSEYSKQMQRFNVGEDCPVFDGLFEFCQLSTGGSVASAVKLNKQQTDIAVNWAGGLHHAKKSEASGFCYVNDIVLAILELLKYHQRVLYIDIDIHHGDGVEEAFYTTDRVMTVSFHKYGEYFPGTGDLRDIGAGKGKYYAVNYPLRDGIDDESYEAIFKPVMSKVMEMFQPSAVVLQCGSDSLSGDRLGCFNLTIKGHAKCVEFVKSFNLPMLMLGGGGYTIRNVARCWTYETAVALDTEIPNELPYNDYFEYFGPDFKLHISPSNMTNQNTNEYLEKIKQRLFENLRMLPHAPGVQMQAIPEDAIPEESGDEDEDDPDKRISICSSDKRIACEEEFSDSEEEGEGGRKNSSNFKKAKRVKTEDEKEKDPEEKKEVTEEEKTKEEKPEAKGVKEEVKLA

IC50 (HDAC1): > 30000 nM | IC50 (HDAC6): 75 nM
SMILES: CS(=O)(=O)N(CC(Nc1ncc(-c2nnc(C(F)F)o2)cn1)c1ccc(F)cc1F)CC(F)(F)F (stereo not drawn) [138(+), N-(2-((5-(5-(difluoromethyl)-1,3,4-oxadiazol-2-yl)pyrimidin-2-yl)amino)-2-(2,4-difluorophenyl)ethyl)-N-(2,2,2-trifluoroethyl)methanesulfonamide]

IC50 (HDAC1): > 30000 nM | IC50 (HDAC6): 58 nM
SMILES: CCS(=O)(=O)N(C)CC(Nc1ncc(-c2nnc(C(F)F)o2)cn1)c1ccc(F)cc1F (stereo not drawn) [140(+), N-(2-((5-(5-(difluoromethyl)-1,3,4-oxadiazol-2-yl)pyrimidin-2-yl)amino)-2-(2,4-difluorophenyl)ethyl)-N-methylethanesulfonamide]

IC50 (HDAC1): > 30000 nM | IC50 (HDAC6): 130 nM
SMILES: CCS(=O)(=O)N(CC(Nc1ncc(-c2nnc(C(F)F)o2)cn1)c1ccc(F)cc1F)CC(F)(F)F (stereo not drawn) [141(+), N-(2-((5-(5-(difluoromethyl)-1,3,4-oxadiazol-2-yl)pyrimidin-2-yl)amino)-2-(2,4-difluorophenyl)ethyl)-N-(2,2,2-trifluoroethyl)ethanesulfonamide]

IC50 (HDAC1): > 30000 nM | IC50 (HDAC6): 53 nM
SMILES: CN(CC(Nc1ncc(-c2nnc(C(F)F)o2)cn1)c1ccc(F)cc1F)S(=O)(=O)C1CC1 (stereo not drawn) [143(+), N-(2-((5-(5-(difluoromethyl)-1,3,4-oxadiazol-2-yl)pyrimidin-2-yl)amino)-2-(2,4-difluorophenyl)ethyl)-N-methylcyclopropanesulfonamide]

IC50 (HDAC1): > 30000 nM | IC50 (HDAC6): 160 nM
SMILES: O=S(=O)(C1CC1)N(CC(Nc1ncc(-c2nnc(C(F)F)o2)cn1)c1ccc(F)cc1F)CC(F)(F)F (stereo not drawn) [144(+), N-(2-((5-(5-(difluoromethyl)-1,3,4-oxadiazol-2-yl)pyrimidin-2-yl)amino)-2-(2,4-difluorophenyl)ethyl)-N-(2,2,2-trifluoroethyl)cyclopropanesulfonamide]

IC50 (HDAC1): > 30000 nM | IC50 (HDAC6): 41 nM
SMILES: CN(CC(Nc1ncc(-c2nnc(C(F)F)o2)cn1)c1ccc(OC(F)F)cc1F)S(C)(=O)=O (stereo not drawn) [145(+), N-(2-(4-(difluoromethoxy)-2-fluorophenyl)-2-((5-(5-(difluoromethyl)-1,3,4-oxadiazol-2-yl)pyrimidin-2-yl)amino)ethyl)-N-methylmethanesulfonamide]

Second part, the molecule before the results:

SMILES: Fc1ccc(C(CC(F)(F)F)Nc2ncc(-c3nnc(C(F)F)o3)cn2)cc1 (single isomer, unassigned; (-)) [13(−), (−)-5-(5-(difluoromethyl)-1,3,4-oxadiazol-2-yl)-N-(3,3,3-trifluoro-1-(4-fluorophenyl)propyl)pyrimidin-2-amine]
IC50 (HDAC1): > 30000 nM | IC50 (HDAC6): 550 nM

SMILES: CC(Nc1ncc(-c2nnc(C(F)F)o2)cn1)c1ccc(F)cc1 (single isomer, unassigned; (-)) [20(−), (−)-5-(5-(difluoromethyl)-1,3,4-oxadiazol-2-yl)-N-(1-(4-fluorophenyl)ethyl)pyrimidin-2-amine]
IC50 (HDAC1): > 30000 nM | IC50 (HDAC6): > 1000 nM

SMILES: CC(Nc1ncc(-c2nnc(C(F)F)o2)cn1)c1c(F)cccc1F (single isomer, unassigned; (-)) [100(−), (−)-5-(5-(difluoromethyl)-1,3,4-oxadiazol-2-yl)-N-(1-(2,6-difluorophenyl)ethyl)pyrimidin-2-amine]
IC50 (HDAC1): > 30000 nM | IC50 (HDAC6): > 1000 nM

SMILES: O=S1(=O)CCCN1CC(Nc1ncc(-c2nnc(C(F)F)o2)cn1)c1ccc(F)cc1 (single isomer, unassigned; (-)) [120(−), (−)-2-(2-((5-(5-(difluoromethyl)-1,3,4-oxadiazol-2-yl)pyrimidin-2-yl)amino)-2-(4-fluorophenyl)ethyl)isothiazolidine 1,1-dioxide]
IC50 (HDAC1): > 30000 nM | IC50 (HDAC6): 150 nM

SMILES: CS(=O)(=O)N(CC(Nc1ncc(-c2nnc(C(F)F)o2)cn1)c1ccc(OC(F)F)cc1F)CC(F)(F)F (stereo not drawn) [146(+), N-(2-(4-(difluoromethoxy)-2-fluorophenyl)-2-((5-(5-(difluoromethyl)-1,3,4-oxadiazol-2-yl)pyrimidin-2-yl)amino)ethyl)-N-(2,2,2-trifluoroethyl)methanesulfonamide]
IC50 (HDAC1): > 30000 nM | IC50 (HDAC6): 140 nM
